# The supplement of paper PMC10331698
# ± gives the standard deviation of the averaged measurements.
# Legend:
# Assay in all cases: level (log10 ratio to DMSO vehicle control); higher = higher biomarker level / cell amount than vehicle control
# [1] = compound: O=S(=O)(O)CCC(F)(F)C(F)(F)C(F)(F)C(F)(F)C(F)(F)C(F)(F)C(F)(F)C(F)(F)F [8:2 Fluorotelomer sulfonic acid] (in DMSO)
# Protocol: (§1)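 BioMAP Diversity Plus panel of 12 human primary cell co-culture systems (3C, 4H, LPS, SAg, BT, BF4T, BE3C, CASM3C, HDF3CGF, KF3CT, MyoF, Mphg). Compounds were added 1 h before stimulation and left for 24 h (MyoF 48 h; BT 72 h for soluble read-outs or 6 d for IgG). Biomarkers were read by ELISA, cytotoxicity by SRB, PBMC viability and proliferation by Alamar Blue. Each well value was divided by the mean of 8 DMSO control wells on the same plate and log10 transformed; duplicate blinded samples were tested at 4 concentrations.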
# [2] = compound: O=C(O)CCC(F)(C(F)(F)F)C(F)(F)F [4,4-bis(Trifluoromethyl)-4-fluoropropanoic acid] (in DMSO)
# Protocol: as §1
# [3] = compound: CCOC(=O)CC(=O)C(F)(F)C(F)(F)F [Ethyl pentafluoropropionyl acetate] (in DMSO)
# Protocol: as §1
# [4] = compound: O=S(=O)(O)C(F)(F)C(F)(F)OC(F)(F)C(F)(F)F [Perfluoro(2-ethoxyethane)sulfonic acid] (in DMSO)
# Protocol: as §1
# [5] = compound: O=C(O)C=C(C(F)(F)F)C(F)(F)F [3,3-Bis(trifluoromethyl)-2-propenoic acid] (in DMSO)
# Protocol: as §1
# [6] = compound: O=C(O)C(F)(F)OC(F)(F)C(F)(F)OC(F)(F)C(F)(F)OC(F)(F)C(F)(F)C(F)(F)C(F)(F)F [Perfluoro-3,6,9-trioxatridecanoic acid] (in DMSO); details: 6700 nM
# Protocol: as §1
# [7] = compound: NS(=O)(=O)C(F)(F)C(F)(F)C(F)(F)C(F)(F)C(F)(F)C(F)(F)C(F)(F)C(F)(F)F [Perfluorooctanesulfonamide] (in DMSO)
# Protocol: as §1
Test System,level (log10) ([1]; 6700 nM),level (log10) ([1]; 20000 nM),level (log10) ([1]; 60000 nM),level (log10) ([2]; 6700 nM),level (log10) ([2]; 20000 nM),level (log10) ([2]; 60000 nM),level (log10) ([3]; 6700 nM),level (log10) ([3]; 20000 nM),level (log10) ([3]; 60000 nM),level (log10) ([4]; 6700 nM),level (log10) ([4]; 20000 nM),level (log10) ([4]; 60000 nM),level (log10) ([5]; 6700 nM),level (log10) ([5]; 20000 nM),level (log10) ([5]; 60000 nM),level (log10) [6],level (log10) ([7]; 6700 nM),level (log10) ([7]; 20000 nM)
HDF3CGF:CXCL8/IL-8,-0.0145 ± 0.0064,-0.0045 ± 0.0035,-0.0015 ± 0.026,-0.0105 ± 0.013,-0.0005 ± 0.0092,0.0065 ± 0.03,-0.005 ± 0.0028,-0.0045 ± 0.011,-0.002 ± 0.021,-0.015 ± 0.0028,-0.0075 ± 0.0064,0.0045 ± 0.0035,0.008 ± 0.0014,-0.001,0.022 ± 0.011,0.003 ± 0.0042,0.004 ± 0.0085,-0.204 ± 0.11
HDF3CGF:CXCL9/MIG,-0.048 ± 0.034,-0.0575 ± 0.04,0.061 ± 0.034,-0.0105 ± 0.039,-0.0215 ± 0.056,-0.0305 ± 0.054,0.001 ± 0.0042,-0.013 ± 0.0085,-0.0185 ± 0.005,0.004 ± 0.0057,0.002 ± 0.0042,-0.0055 ± 0.005,-0.006 ± 0.0028,-0.0075 ± 0.013,-0.0175 ± 0.015,-0.196 ± 0.0035,-0.203 ± 0.011,-0.761 ± 0.11
HDF3CGF:CXCL10/IP-10,-0.014 ± 0.0014,-0.0315 ± 0.0092,-0.06 ± 0.016,-0.0175 ± 0.084,-0.0415 ± 0.088,-0.0395 ± 0.035,-0.0125 ± 0.015,-0.0105 ± 0.022,-0.046 ± 0.0085,0.0105 ± 0.033,-0.0145 ± 0.05,-0.0105 ± 0.056,-0.0175 ± 0.005,-0.0445 ± 0.005,-0.04 ± 0.025,-0.3805 ± 0.00071,-0.216 ± 0.011,-0.893 ± 0.047
HDF3CGF:CXCL11/I-TAC,-0.053 ± 0.027,-0.0285 ± 0.03,-0.0865 ± 0.067,-0.035 ± 0.079,-0.0465 ± 0.074,-0.0745 ± 0.12,-0.0175 ± 0.029,-0.026 ± 0.037,-0.0425 ± 0.021,0.0165 ± 0.022,0.0055 ± 0.021,-0.0365 ± 0.063,-0.038 ± 0.011,-0.0555 ± 0.035,-0.033 ± 0.054,-0.149 ± 0.013,-0.111 ± 0.013,-0.492 ± 0.028
HDF3CGF:Collagen I,0.007 ± 0.038,0.0195 ± 0.049,-0.0455 ± 0.17,-0.0105 ± 0.025,-0.0025 ± 0.028,0.0195 ± 0.026,-0.0205 ± 0.021,-0.003 ± 0.051,-0.0355 ± 0.0092,-0.046 ± 0.024,-0.037 ± 0.031,0.017 ± 0.055,-0.031 ± 0.0028,-0.041 ± 0.02,-0.03 ± 0.038,-0.0565 ± 0.061,0.08 ± 0.037,-0.0535 ± 0.046
HDF3CGF:Collagen III,0.05 ± 0.014,0.0975 ± 0.0092,0.0145 ± 0.12,-0.005 ± 0.04,-0.0495 ± 0.11,-0.0455 ± 0.04,-0.02 ± 0.047,-0.0505 ± 0.023,-0.0895 ± 0.015,-0.062 ± 0.12,-0.08 ± 0.085,-0.025 ± 0.16,-0.0905 ± 0.012,-0.0985 ± 0.029,-0.0635 ± 0.069,-0.236 ± 0.028,-0.0345 ± 0.012,-0.449 ± 0.019
HDF3CGF:EGFR,-0.011 ± 0.033,-0.0455 ± 0.03,-0.101 ± 0.026,-0.05 ± 0.028,-0.0445 ± 0.04,-0.013 ± 0.033,-0.014 ± 0.0057,-0.018 ± 0.017,0.0125 ± 0.037,-0.035 ± 0.05,-0.017 ± 0.042,0.0315 ± 0.07,-0.02 ± 0.041,-0.039 ± 0.05,-0.0145 ± 0.0035,-0.101 ± 0.023,-0.016 ± 0.014,-0.171 ± 0.016
HDF3CGF:M-CSF,-0.0035 ± 0.056,-0.014 ± 0.038,-0.0685 ± 0.04,-0.0205 ± 0.081,-0.0565 ± 0.13,-0.0735 ± 0.15,-0.022 ± 0.017,-0.034 ± 0.037,-0.0135 ± 0.094,0.004 ± 0.011,-0.0075 ± 0.0092,-0.009 ± 0.016,-0.0595 ± 0.0078,-0.072 ± 0.042,-0.051 ± 0.014,-0.158 ± 0.016,-0.0605 ± 0.012,-0.507 ± 0.07
HDF3CGF:MMP-1,0.0205 ± 0.012,-0.017 ± 0.028,-0.0835 ± 0.036,0.0015 ± 0.015,-0.0075 ± 0.029,-0.0145 ± 0.054,0.01 ± 0.028,0.022 ± 0.0071,0.029 ± 0.034,-0.004 ± 0.0071,-0.0135 ± 0.029,-0.0235 ± 0.053,-0.015 ± 0.0014,-0.013 ± 0.017,-0.001 ± 0.0099,-0.134 ± 0.054,0.0145 ± 0.026,-0.206 ± 0.096
HDF3CGF:PAI-I,0.018 ± 0.034,-0.002 ± 0.021,0.0015 ± 0.0078,0.0145 ± 0.011,-0.0095 ± 0.00071,-0.014 ± 0.024,-0.01 ± 0.025,0.004 ± 0.024,0.031 ± 0.062,0.025 ± 0.0014,-0.003 ± 0.0071,-0.021 ± 0.013,-0.0265 ± 0.015,-0.069 ± 0.0099,-0.153 ± 0.025,-0.212 ± 0.0099,0.005 ± 0.033,-0.45 ± 0.26
HDF3CGF:Proliferation 72hr,0.0275 ± 0.044,0.0785 ± 0.06,0.107 ± 0.0014,-0.0275 ± 0.035,0.0025 ± 0.028,0.037 ± 0.0014,-0.019 ± 0.073,-0.017 ± 0.092,0.036 ± 0.017,-0.0225 ± 0.021,0.004 ± 0.0042,-0.067 ± 0.03,-0.0325 ± 0.021,-0.086 ± 0.069,-0.24 ± 0.066,-0.827 ± 0.29,0.0105 ± 0.036,-0.58 ± 0.15
HDF3CGF:SRB,-0.044 ± 0.064,-0.017 ± 0.1,0.168 ± 0.037,-0.0385 ± 0.07,-0.0245 ± 0.042,0.045 ± 0.041,0.007 ± 0.027,-0.0005 ± 0.032,0.0025 ± 0.021,-0.02 ± 0.0085,-0.017 ± 0.013,0.0085 ± 0.1,-0.014 ± 0.028,0.0125 ± 0.021,-0.022 ± 0.02,-0.107 ± 0.0021,-0.028 ± 0.055,0.0615 ± 0.019
HDF3CGF:TIMP-1,0.0375 ± 0.0064,0.0435 ± 0.037,-0.0365 ± 0.077,-0.022 ± 0.041,-0.021 ± 0.044,-0.036 ± 0.092,-0.0085 ± 0.037,-0.007 ± 0.0071,-0.0305 ± 0.012,0.0415 ± 0.067,0.048 ± 0.04,0.0955 ± 0.071,-0.0935 ± 0.049,-0.125 ± 0.065,-0.0675 ± 0.013,-0.109 ± 0.088,0.065 ± 0.068,-0.138 ± 0.15
HDF3CGF:TIMP-2,-0.003 ± 0.016,-0.023 ± 0.016,-0.0475 ± 0.022,-0.042 ± 0.052,-0.041 ± 0.045,-0.0265 ± 0.013,-0.05 ± 0.044,-0.012 ± 0.024,-0.069 ± 0.011,-0.011 ± 0.0099,-0.0305 ± 0.015,0.02 ± 0.059,-0.0175 ± 0.013,-0.0595 ± 0.028,-0.082 ± 0.03,-0.291 ± 0.005,-0.0545 ± 0.0021,-0.102 ± 0.044
KF3CT:CCL2/MCP-1,-0.0135 ± 0.005,-0.0585 ± 0.029,-0.0475 ± 0.011,-0.011 ± 0.0057,-0.0145 ± 0.03,0.0015 ± 0.0092,-0.0355 ± 0.0064,-0.045 ± 0.035,0.001 ± 0.071,-0.0025 ± 0.013,-0.002 ± 0.016,0.0115 ± 0.032,-0.0055 ± 0.036,-0.015 ± 0.014,-0.028 ± 0.052,-0.295 ± 0.023,0.025 ± 0.016,0.116 ± 0.037
